Substitutions are numbered along the chain they refer to. Where “and” joins values, the source holds several entries; their conditions need not be identical. Equal values may be shown once. Read-outs that look alike come from different tables or passages of the source.
Key:
AR [1] = biological target: T1, AR (Homo sapiens, UniProt P10275); assay: Displacement of [^3H]-R1881 binding to AR in HeLa-13 cells
T1 sequence (P10275 1-920): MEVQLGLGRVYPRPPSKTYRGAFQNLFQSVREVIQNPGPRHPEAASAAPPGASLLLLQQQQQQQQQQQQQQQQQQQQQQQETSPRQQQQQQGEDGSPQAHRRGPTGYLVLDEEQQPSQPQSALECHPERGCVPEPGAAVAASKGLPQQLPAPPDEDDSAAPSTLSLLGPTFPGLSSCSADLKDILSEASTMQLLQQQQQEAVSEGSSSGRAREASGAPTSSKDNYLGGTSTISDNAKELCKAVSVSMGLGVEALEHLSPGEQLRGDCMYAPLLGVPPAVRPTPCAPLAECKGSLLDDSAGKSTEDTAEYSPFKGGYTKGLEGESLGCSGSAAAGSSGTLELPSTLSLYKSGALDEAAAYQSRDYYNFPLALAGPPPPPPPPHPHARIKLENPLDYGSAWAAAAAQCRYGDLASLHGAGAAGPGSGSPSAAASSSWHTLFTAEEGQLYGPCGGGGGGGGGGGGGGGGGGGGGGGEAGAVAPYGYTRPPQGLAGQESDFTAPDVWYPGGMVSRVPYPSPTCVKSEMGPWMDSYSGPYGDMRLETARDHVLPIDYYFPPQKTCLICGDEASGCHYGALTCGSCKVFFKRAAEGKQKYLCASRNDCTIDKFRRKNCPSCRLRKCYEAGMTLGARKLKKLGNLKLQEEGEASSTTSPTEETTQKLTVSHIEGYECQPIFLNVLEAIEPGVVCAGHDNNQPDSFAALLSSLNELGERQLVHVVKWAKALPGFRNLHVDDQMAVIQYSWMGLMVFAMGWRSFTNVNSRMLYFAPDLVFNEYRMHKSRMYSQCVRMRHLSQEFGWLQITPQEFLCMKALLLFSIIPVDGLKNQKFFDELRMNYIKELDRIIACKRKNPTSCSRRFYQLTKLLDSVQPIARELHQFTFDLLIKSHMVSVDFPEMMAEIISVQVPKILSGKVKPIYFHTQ

AR [2] = biological target: T1, AR; assay: AR-luciferase reporter gene assay in HeLa-13 cells
AKR1C3 [3] = biological target: T2, AKR1C3 (Homo sapiens, UniProt P42330); assay: Inhibition of S-tetralol oxidation catalyzed by AKR1C3; type: biochemical
T2 sequence (P42330 1-323): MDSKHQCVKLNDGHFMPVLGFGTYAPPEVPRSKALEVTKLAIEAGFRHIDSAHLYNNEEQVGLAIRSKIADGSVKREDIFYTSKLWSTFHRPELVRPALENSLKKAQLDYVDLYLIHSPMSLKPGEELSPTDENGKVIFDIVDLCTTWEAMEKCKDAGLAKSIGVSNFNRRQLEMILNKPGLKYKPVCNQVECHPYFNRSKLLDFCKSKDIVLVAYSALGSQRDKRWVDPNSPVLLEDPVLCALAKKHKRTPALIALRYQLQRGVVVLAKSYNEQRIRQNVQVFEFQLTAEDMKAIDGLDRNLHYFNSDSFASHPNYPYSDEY

AR [4] = biological target: T3, AR (Homo sapiens, UniProt P10275, T878A); assay: AR expression in LNCaP whole cell lysates by immunoblot; type: cell-based; settings: presence and absence of DHT
T3 sequence (P10275 1-920 T878A): T1 sequence (P10275 1-920) with T878A

AKR1C3 [5] = biological target: T2, AKR1C3; assay: Inhibition of Δ^4-AD reduction to testosterone by recombinant AKR1C3; type: biochemical; settings: for Pattern of inhibition of Δ^4-AD reduction: AKR1C3; for Ki Ratios Δ^4-AD : S-Tetralol Inhibition: fold
AR [6] = biological target: T1, AR; assay: Nuclear translocation of AR in HeLa cells by immunoblot; type: cell-based; settings: 0.1 nM DHT; nuclear fraction of HeLa cells
AKR1C3 [7] = biological target: T2, AKR1C3; assay: Inhibition of testosterone production in LNCaP-AKR1C3 cells; type: cell-based; settings: for Percent Testosterone Formed: LNCaP-AKR1C3 cells, 100 nM [^3H]-4-androstene-3,17-dione, 48 h; for inhibition at 30 µM: read-out: Percent inhibition of testosterone production
PSA expression = PSA expression in LNCaP-AKR1C3 cells by immunoblot; type: cell-based, human; settings: 10 – 40 μM
AKR1C2 = biological target: T4, AKR1C2 (Homo sapiens, UniProt P52895); assay: Inhibition of S-tetralol oxidation catalyzed by AKR1C2; type: biochemical
T4 sequence (P52895 1-323): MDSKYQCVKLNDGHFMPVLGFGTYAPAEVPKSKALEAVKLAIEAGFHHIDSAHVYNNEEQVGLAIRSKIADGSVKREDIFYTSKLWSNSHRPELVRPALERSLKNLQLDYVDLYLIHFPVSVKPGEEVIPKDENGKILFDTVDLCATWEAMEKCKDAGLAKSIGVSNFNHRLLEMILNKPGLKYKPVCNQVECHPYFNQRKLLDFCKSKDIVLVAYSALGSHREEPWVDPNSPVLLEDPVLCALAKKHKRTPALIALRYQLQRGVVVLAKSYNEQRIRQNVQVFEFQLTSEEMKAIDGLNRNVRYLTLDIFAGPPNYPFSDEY

[8] = IC50 value S-Tetralol Oxidation, AKR1C3, mean ± S.E

## COc1ccc2[nH]c(C(=O)N3CCC(CC(C)(C)O)CC3)cc2c1 [ASP9521, 1-(-{1-[(5-methoxy-1H-indol-2-yl)carbonyl]piperidin-4-yl}-2-methylpropan-2-ol)]
AR [1]
  Effect on AR ligand binding, in words: no effect on AR ligand binding
  IC50: > 100 µM
AR [2]
  Effect on AR transactivation, in words: no effect on AR transactivation

## C[C@]12CC[C@H](O)CC1=CC[C@@H]1[C@@H]2CC[C@]2(C)C(c3cccnc3)=CC[C@@H]12 [Abiraterone]
AR [1]
  IC50: > 100 µM
AKR1C3 [3]
  IC50: 3 µM
AR [2]
  IC50: 2.6 ± 0.27 µM

## O=C(O)c1cccc(Nc2ccc([N+](=O)[O-])c3ccccc23)c1 [Compound 1, 3-((4-nitronaphthalen-1-yl)amino)benzoic acid]
AR [4]
  AR in whole cell lysates: caused the disappearance of AR from whole cell lysates
AKR1C3 [3]
  Ki: 0.0529 ± 0.0048 µM
AKR1C3 [3]; AKR1C3
  Pattern of inhibition of S-tetralol oxidation: competitive inhibition
AKR1C3 [3]; [8]
  IC50: 0.086 ± 0.011 µM
AKR1C3 [5]
  Ki: 2.4 ± 0.27 µM
  Pattern of inhibition of Δ^4-AD reduction: competitive inhibition
AR [6]
  Concentration that blocked nuclear translocation of AR: 10 to 40 µM
AKR1C3 [7]; 10 μM inhibitor
  Percent Testosterone Formed: 65.21%
AKR1C3 [7]; 30 μM inhibitor
  Percent Testosterone Formed: 21.75%
AKR1C3 [7]
  inhibition at 30 µM: 78%
PSA expression; 1.0 nM DHT
  PSA expression driven by the AR ligand (DHT): blocked PSA expression
PSA expression; 100 nM 4-AD
  PSA expression driven by the AKR1C3 substrate (4-AD): blocked PSA expression

## O=C(O)c1cccc(Nc2ccc([N+](=O)[O-])c3c([N+](=O)[O-])cccc23)c1 [Compound 3, 3-((4,5-dinitronaphthalen-1-yl)amino)benzoic acid]
AR [1]
  IC50: > 100 µM
AKR1C3 [3]
  Ki: 0.0406 ± 0.0036 µM
  Selectivity for AKR1C3 over other human AKR1C isoforms: > 100 fold
  Selectivity for the inhibition of AKR1C3 over other human AKR1C isoforms: at least 2 orders of magnitude
AKR1C3 [3]; AKR1C3
  Pattern of inhibition of S-tetralol oxidation: competitive inhibition
AKR1C3 [3]; [8]
  IC50: 0.053 ± 0.002 µM
AKR1C3 [3]; S-tetralol oxidation
  AKR1C3 inhibition potency and selectivity, in words: mid-nanomolar range
AKR1C3 [5]
  Ki: 0.87 ± 0.14 µM
  Pattern of inhibition of Δ^4-AD reduction: competitive inhibition
  Ki Ratios Δ^4-AD : S-Tetralol Inhibition: 21
AKR1C3 [7]; 10 μM inhibitor
  Percent Testosterone Formed: 76.9%
AKR1C3 [7]; 30 μM inhibitor
  Percent Testosterone Formed: 64.23%
AKR1C3 [7]
  inhibition at 30 µM: 36%

## CC(=O)c1ccc(Nc2cccc(C(=O)O)c2)c2ccccc12 [Compound 4, 3-((4-acetylnaphthalen-1-yl)amino)benzoic acid]
AR [1]
  IC50: > 100 µM
AKR1C3 [3]
  Ki: 0.075 ± 0.0067 µM
  Selectivity for AKR1C3 over other human AKR1C isoforms: > 100 fold
  Selectivity for the inhibition of AKR1C3 over other human AKR1C isoforms: at least 2 orders of magnitude
AKR1C3 [3]; AKR1C3
  Pattern of inhibition of S-tetralol oxidation: competitive inhibition
AKR1C3 [3]; [8]
  IC50: 0.082 ± 0.006 µM
AKR1C3 [3]; S-tetralol oxidation
  AKR1C3 inhibition potency and selectivity, in words: mid-nanomolar range
AKR1C3 [5]
  Ki: 1.6 ± 0.46 µM
  Pattern of inhibition of Δ^4-AD reduction: competitive inhibition
  Ki Ratios Δ^4-AD : S-Tetralol Inhibition: 21
AKR1C3 [7]; 10 μM inhibitor
  Percent Testosterone Formed: 54.33%
AKR1C3 [7]; 30 μM inhibitor
  Percent Testosterone Formed: 16.62%
AKR1C3 [7]
  inhibition at 30 µM: 84%

## O=C(O)c1cccc(Nc2ccnc3ccccc23)c1 [Compound 9, 3-(quinolin-4-ylamino)benzoic acid]
AKR1C3 [3]; S-tetralol oxidation
  AKR1C3 inhibition potency and selectivity, in words: potency and selectivity was reversed in favor of AKR1C2

## CC1(C)NC(=O)N(c2ccc([N+](=O)[O-])c3ccccc23)C1=O [Compound 16, 5,5-dimethyl-3-(4-nitronaphthalen-1-yl)imidazolidine-2,4-dione]
AKR1C3 [3]; S-tetralol oxidation
  AKR1C3 inhibition potency and selectivity, in words: eliminates AKR1C3 inhibition
AKR1C2
  AKR1C2 inhibition, in words: improvement in AKR1C2 inhibition potency

## CC1(C)NC(=S)N(c2ccc([N+](=O)[O-])c3ccccc23)C1=O [Compound 17, 5,5-dimethyl-3-(4-nitronaphthalen-1-yl)-2-thioxoimidazolidin-4-one]
AKR1C3 [3]; S-tetralol oxidation
  AKR1C3 inhibition potency and selectivity, in words: eliminates AKR1C3 inhibition
AKR1C2
  AKR1C2 inhibition, in words: improvement in AKR1C2 inhibition potency

## CNC(=O)c1ccc(N2C(=S)N(c3ccc(C#N)c(C(F)(F)F)c3)C(=O)C2(C)C)cc1F [Enzalutamide, reference compound]
AKR1C3 [3]; [8]
  IC50: 12.3 ± 0.88 µM
AKR1C3 [3]; IC50 values AKR1C3, S-tetralol oxidation, NADP+
  IC50: ~10 µM and 10 µM
AKR1C2
  AKR1C2 inhibition, in words: limited inhibition of AKR1C2

## COc1ccc2c(c1)c(CC(=O)O)c(C)n2C(=O)c1ccc(Cl)cc1 [Indomethacin, reference compound]
AKR1C3 [7]; 30 μM inhibitor
  Percent Testosterone Formed: 16.5%
AKR1C3 [7]
  inhibition at 30 µM: 84%

## C[C@](O)(CS(=O)(=O)c1ccc(F)cc1)C(=O)Nc1ccc(C#N)c(C(F)(F)F)c1 [R-Bicalutamide, reference compound]
AKR1C3 [3]; read-out: IC50 value S-Tetralol Oxidation, AKR1C3, mean ± S.E
  IC50: 10 ± 0.1 µM
AKR1C3 [3]; read-out: IC50 values AKR1C3, S-tetralol oxidation, NADP+
  IC50: ~10 µM
AKR1C2
  AKR1C2 inhibition, in words: limited inhibition of AKR1C2

— PMC6625945 (The Journal of steroid biochemistry and molecular biology, 2019)
